12 compounds from ChEMBL document CHEMBL1201862, “PubChem BioAssay data set” (2004) can be followed below.

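Results reflect a 48-hour exposure of cells in 96-well plates to compound at five concentrations. Abbreviation: GI50, concentration required for 50% inhibition of growth.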 Calls of active or inactive are those of the source. Rule as the data show it: active = GI50 up to about 1.1 µM and inactive = higher.

Some test systems named below: UACC-257; UO-31; HOP-92; HCT-15; SF-268; HT-29; HCC 2998; SK-MEL-5; SK-MEL-2; EKVX; NCI-H460; Malme-3M; SK-MEL-28; ACHN; LOX IMVI; SW-620; DU-145; A549; MDA-MB-231.
Experiment in all cases: NCI tumour cell line growth inhibition, 48 h

As for `O=CN/C=C/c1ccccc1`, the GI50 is > 100 µM (inactive) with UACC-257; > 87.3 µM (inactive) in the test with UO-31; > 100 µM (inactive) in the test with HOP-92; more than 100 µM in the test with HCT-15; > 100 µM (inactive) with SF-268; > 100 µM (inactive) in the test on HT-29. Moreover, the GI50 in the test on HCC 2998, in the test on SK-MEL-5, in the test on SK-MEL-2, in the test with EKVX, with NCI-H460 and with Malme-3M was > 100 µM (inactive) each time. The GI50 is > 100 µM (inactive) in the test with SK-MEL-28; > 100 µM (inactive) in the test with ACHN; > 100 µM (inactive) with LOX IMVI; > 51.2 µM (inactive) with SW-620; > 100 µM (inactive) with DU-145; > 100 µM (inactive) in the test with A549.

On to `COc1cc(C2C3C=CC=C4CC=CC(=C43)C3CCC(=O)N32)cc(OC)c1OC` (stereo unspecified), for which the GI50 in the test on UACC-257 was > 100 µM (inactive); in the test on UO-31 it was 48.9 µM (inactive); with HOP-92, 85.9 µM (inactive); in the test on HCT-15 it was more than 100 µM; in the test with SF-268, > 100 µM (inactive); with HT-29 it was 61.5 µM (inactive). For the same compound, the GI50 in the test with SK-MEL-2, in the test with EKVX, in the test on NCI-H460, in the test with SK-MEL-28, in the test on ACHN and with LOX IMVI was > 100 µM (inactive) throughout. Moreover, the GI50 is > 100 µM (inactive) with SW-620, > 100 µM (inactive) in the test with MDA-MB-231, > 100 µM (inactive) in the test with DU-145 and 99.1 µM (inactive) in the test on A549.

For the compound `O=c1nc(-c2ccccc2)c2c3c(cccn13)CCC2`, the GI50 with UACC-257 is > 100 µM (inactive); with UO-31 it was 73.6 µM (inactive); in the test on HOP-92, > 100 µM (inactive); in the test with HCT-15, more than 100 µM; in the test with SF-268 it was > 100 µM (inactive); with HT-29, > 100 µM (inactive). In addition, the GI50 in the test with HCC 2998, with SK-MEL-5, in the test on SK-MEL-2, in the test on NCI-H460, in the test on Malme-3M and in the test with SK-MEL-28 was > 100 µM (inactive) each time. Moreover, the GI50 with ACHN, in the test on LOX IMVI, with SW-620 and in the test with A549 was > 100 µM (inactive) throughout.

For `Cc1nc(-n2nc(-c3ccccc3)cc2-c2ccccc2)sc1C(/C=C/c1ccc([N+](=O)[O-])cc1)=N/NC(N)=S`, the GI50 in the test with UACC-257 is 78.3 µM (inactive); with UO-31, 7.41 µM (inactive); in the test on HOP-92, 25.1 µM (inactive); with HCT-15 it was 28.4 µM; in the test on SF-268 it was 31.4 µM (inactive); in the test on HT-29, 23.7 µM (inactive). In addition, the GI50 in the test with HCC 2998 was 23.1 µM (inactive); in the test with SK-MEL-5, 28.8 µM (inactive); with SK-MEL-2, 33.9 µM (inactive); in the test with EKVX, > 100 µM (inactive); in the test with NCI-H460 it was 60.3 µM (inactive); with Malme-3M, > 100 µM (inactive). In addition, the GI50 with SK-MEL-28 was 91.8 µM (inactive); in the test with ACHN, 46.1 µM (inactive); with LOX IMVI it was > 10 µM (inactive); in the test on SW-620 it was > 10 µM (inactive); in the test on A549 it was 97.3 µM (inactive).

`Cc1cccc(/C=N/N=C(\N)NO)n1`: the GI50 with UACC-257 was > 100 µM (inactive); in the test on HOP-92, 26.1 µM (inactive); in the test with HCT-15, more than 10 µM; in the test on SF-268, 16.1 µM (inactive); in the test on HT-29 it was 48.4 µM (inactive); in the test on HCC 2998, 83.8 µM (inactive). Also, the GI50 in the test with SK-MEL-5 is 27.5 µM (inactive); in the test with SK-MEL-2, 50 µM (inactive); in the test on EKVX, 37.3 µM (inactive); in the test on NCI-H460, 26.9 µM (inactive); in the test on Malme-3M, > 100 µM (inactive); in the test with SK-MEL-28, > 100 µM (inactive). For the same compound, the GI50 is 27.3 µM (inactive) in the test on ACHN, 5.73 µM (inactive) in the test with LOX IMVI, 74.5 µM (inactive) with SW-620 and 13.4 µM (inactive) with A549.

Turning to `COC(=O)C1Cc2c(n(C)c3ccccc23)C(CCC(=O)O)N1Cc1ccccc1` (stereo unspecified), the GI50 was 43.2 µM (inactive) with UACC-257; 21.2 µM (inactive) in the test with UO-31; 23.6 µM (inactive) in the test on HOP-92; 27.7 µM in the test on HCT-15; 26.4 µM (inactive) in the test on SF-268; 36.1 µM (inactive) in the test on HT-29. Further, the GI50 in the test with HCC 2998 is > 100 µM (inactive); in the test on SK-MEL-5, 27.3 µM (inactive); with SK-MEL-2 it was > 100 µM (inactive); in the test with EKVX, 46.1 µM (inactive); in the test on NCI-H460, 23.6 µM (inactive); in the test on Malme-3M, > 100 µM (inactive). The GI50 in the test on SK-MEL-28 is 28.4 µM (inactive); in the test with ACHN, 19.6 µM (inactive); with LOX IMVI, 37.8 µM (inactive); in the test on SW-620 it was 40.4 µM (inactive); in the test on A549 it was 31 µM (inactive).

As to `O=C(CCCC(=O)Nc1ccc(Cl)cc1Cl)CC(=O)c1ccc2ccccc2c1`, the GI50 is > 100 µM (inactive) in the test with UACC-257; > 100 µM (inactive) in the test with UO-31; 96.6 µM (inactive) in the test on HOP-92; more than 100 µM in the test on HCT-15; > 100 µM (inactive) with SF-268; > 100 µM (inactive) in the test on HT-29. The GI50 in the test with HCC 2998, with SK-MEL-5, with SK-MEL-2, in the test on EKVX, with NCI-H460 and in the test on Malme-3M was > 100 µM (inactive) in each case. Moreover, the GI50 with SK-MEL-28, with ACHN, in the test with LOX IMVI, with SW-620 and in the test on A549 was > 100 µM (inactive) each time.

On to `O=C(O/N=C1/CCC/C1=C\c1ccccc1)c1ccc(Cl)cc1`, for which the GI50 is > 100 µM (inactive) in the test with UACC-257; 58.9 µM (inactive) in the test with UO-31; 64.3 µM (inactive) in the test on HOP-92; more than 100 µM with HCT-15; > 77.4 µM (inactive) with SF-268; > 100 µM (inactive) in the test with HT-29. Besides, the GI50 in the test with HCC 2998 is > 100 µM (inactive); in the test with SK-MEL-5 it was > 100 µM (inactive); in the test on SK-MEL-2 it was > 100 µM (inactive); with EKVX it was > 67.3 µM (inactive); with NCI-H460, > 31.6 µM (inactive); with Malme-3M, > 100 µM (inactive). Moreover, the GI50 in the test on SK-MEL-28 is > 100 µM (inactive); in the test on ACHN, 60.5 µM (inactive); with LOX IMVI, > 100 µM (inactive); in the test with SW-620, > 100 µM (inactive); in the test on A549, 64 µM (inactive).

With `Cc1cc(-c2ccccc2)nc(Nc2cc3ccccc3[nH]2)n1`, the GI50 is > 100 µM (inactive) with UACC-257; > 100 µM (inactive) with UO-31; 22.2 µM (inactive) with HOP-92; more than 100 µM in the test with HCT-15; > 100 µM (inactive) with SF-268; > 100 µM (inactive) in the test on HT-29. The GI50 is > 100 µM (inactive) with HCC 2998; > 100 µM (inactive) with SK-MEL-5; > 100 µM (inactive) in the test on SK-MEL-2; 89.3 µM (inactive) in the test on EKVX; > 100 µM (inactive) in the test with NCI-H460; > 100 µM (inactive) in the test on Malme-3M. For the same compound, the GI50 in the test on SK-MEL-28, in the test with ACHN, in the test on LOX IMVI, in the test with SW-620 and in the test with A549 was > 100 µM (inactive) throughout.

`COc1cc(C(C)O)c[n+](Cc2ccccc2)c1` (stereo unspecified): the GI50 in the test on UACC-257 is > 100 µM (inactive); with UO-31, > 100 µM (inactive); in the test on HOP-92, > 100 µM (inactive); in the test with HCT-15 it was more than 100 µM; in the test on SF-268, > 100 µM (inactive); with HT-29 it was > 100 µM (inactive). Moreover, the GI50 in the test on HCC 2998, in the test with SK-MEL-5, in the test with SK-MEL-2, with EKVX, in the test with NCI-H460 and with Malme-3M was > 100 µM (inactive) in each case. For the same compound, the GI50 in the test with SK-MEL-28, in the test with ACHN, with LOX IMVI, in the test with SW-620 and in the test with A549 was > 100 µM (inactive) throughout.

Consider `CN(/N=C\c1ccnc2ccccc12)c1ccc([N+](=O)[O-])cc1`, for which the GI50 in the test with UACC-257 was > 100 µM (inactive); in the test with HOP-92, > 100 µM (inactive); in the test with HCT-15 it was more than 100 µM; in the test with SF-268, 9.51 µM (inactive); in the test on HT-29, > 100 µM (inactive); in the test on HCC 2998, > 100 µM (inactive). Moreover, the GI50 in the test with SK-MEL-5 was 53.8 µM (inactive); in the test on SK-MEL-2, > 100 µM (inactive); in the test with EKVX, > 100 µM (inactive); with NCI-H460, 5.73 µM (inactive); in the test on Malme-3M, > 100 µM (inactive); in the test with SK-MEL-28, > 100 µM (inactive). For the same compound, the GI50 in the test with ACHN is > 100 µM (inactive); in the test with LOX IMVI it was 8.2 µM (inactive); in the test with SW-620, 65 µM (inactive); in the test on A549 it was > 100 µM (inactive).

Turning to `CCCCSC(=CC(=O)c1cccc(C(=O)C=C(SCCCC)SCCCC)n1)SCCCC`, the GI50 is > 100 µM (inactive) with UACC-257; > 100 µM (inactive) with UO-31; > 100 µM (inactive) in the test with HOP-92; more than 100 µM in the test with HCT-15; > 100 µM (inactive) in the test on SF-268; > 100 µM (inactive) in the test with HT-29. Moreover, the GI50 in the test with HCC 2998, with SK-MEL-5, in the test with SK-MEL-2, in the test with EKVX, in the test on NCI-H460 and in the test with Malme-3M was > 100 µM (inactive) in each case. For the same compound, the GI50 in the test with SK-MEL-28, with ACHN, in the test on LOX IMVI, in the test with SW-620 and in the test with A549 was > 100 µM (inactive) in each case.
